Test systems include KM-20L2; DMS-114; M19-MEL; LXFL 529; DMS-273; DLD-1; HOP-18; XF498.
Common to all, as to test: growth of human tumour cells (NCI), 48 h

Each structure is given as a SMILES string.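 Where inhibition never reached the appropriate level, the endpoint shown equals the highest concentration tested. Otherwise, values were interpolated linearly from a five-concentration, 48-hour dose response in 96-well plates. GI50 = concentration required for 50% inhibition of growth.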 Active and inactive are the calls of the source. Rule as the data show it: active = GI50 up to about 1.1 µM and inactive = higher.

`O=C1OC(c2ccccc2)=N/C1=C/NC(CS)C(=O)O` (stereo unspecified): the GI50 in the experiment on KM-20L2, with DMS-114, in the experiment with M19-MEL, with LXFL 529, in the experiment on DMS-273 and with DLD-1 was > 100 µM (inactive) in each case.

As to `O=C1C(c2ccccc2)=C(O)c2cccc3cccc1c23`, the GI50 in the experiment on KM-20L2 was > 100 µM (inactive); with DMS-114, > 100 µM (inactive); in the experiment on M19-MEL, > 100 µM (inactive); with HOP-18, 33.6 µM (inactive); with LXFL 529, > 100 µM (inactive); in the experiment on DMS-273 it was > 100 µM (inactive). Besides, the GI50 with XF498 is > 100 µM (inactive).

`O=C1C(=O)N(C(=O)c2ccc(Cl)c(Cl)c2)c2ccc(Cl)cc21`: the GI50 is 27.1 µM (inactive) in the experiment on DMS-114; 18.8 µM (inactive) in the experiment on M19-MEL; > 100 µM (inactive) in the experiment on HOP-18; 71.4 µM (inactive) with LXFL 529; > 100 µM (inactive) in the experiment with DMS-273; 73.5 µM (inactive) in the experiment on DLD-1.

Turning to `COc1ccc(/C=C/C(=O)c2cc(C(=O)O)c(OC)cc2OC)cc1OC`, the GI50 in the experiment with KM-20L2, in the experiment on DMS-114, in the experiment on M19-MEL, in the experiment on HOP-18, in the experiment on LXFL 529 and in the experiment on DMS-273 was > 100 µM (inactive) each time. In addition, the GI50 in the experiment on DLD-1 was > 100 µM (inactive).

`COC1CC(C)C(OC)c2cc(O)cc(c2O)NC(=O)/C(C)=C/C=C\C(C)C(OC(N)=O)/C(C)=C\C(C)C1OC` (stereo unspecified): the GI50 with KM-20L2 is 0.188 µM (active); with DMS-114, 0.406 µM (active); in the experiment on M19-MEL it was 0.437 µM (active); in the experiment with HOP-18 it was 0.0925 µM (active); in the experiment on LXFL 529 it was 0.191 µM (active); with DMS-273, 0.225 µM (active).

In the case of `O=C(O)Cc1ccccc1CCc1ccccc1Cl`, the GI50 with KM-20L2 was > 100 µM (inactive); with M19-MEL it was 95.5 µM (inactive); in the experiment with HOP-18 it was 50.1 µM (inactive); in the experiment with LXFL 529, > 100 µM (inactive); in the experiment on DMS-273 it was > 100 µM (inactive); with DLD-1, > 100 µM (inactive). Also, the GI50 in the experiment with XF498 is > 100 µM (inactive).

In the case of `Cc1cc(N(CCC#N)CCC#N)ccc1/C=C(\NC(=O)/C=C/c1ccccc1)C(=O)NN`, the GI50 in the experiment on KM-20L2, in the experiment on DMS-114, with M19-MEL, with LXFL 529, with DMS-273 and in the experiment on DLD-1 was > 100 µM (inactive) throughout. The GI50 in the experiment on XF498 is 25.6 µM (inactive).

On to `c1cncc(C2c3[nH]c4ccccc4c3CCN2CCCN2CCCCC2)c1` (stereo unspecified), for which the GI50 in the experiment with KM-20L2 was > 100 µM (inactive); in the experiment on DMS-114, > 100 µM (inactive); in the experiment on M19-MEL, > 100 µM (inactive); in the experiment on LXFL 529, 68.7 µM (inactive); with DMS-273, > 100 µM (inactive); in the experiment on DLD-1 it was > 100 µM (inactive). Moreover, in the experiment on XF498, the GI50 was 57.4 µM (inactive).

As to `O/N=C1/CCCC/C1=C/C=C/c1ccccc1`, the GI50 with KM-20L2 was 18.5 µM (inactive); in the experiment with M19-MEL, 19.7 µM (inactive); in the experiment with HOP-18, 25.8 µM (inactive); with LXFL 529, 26 µM (inactive); in the experiment on DLD-1, 29.6 µM (inactive).

On to `O=[PH](O)c1cc2ccccc2c2ccccc12`, for which the GI50 with KM-20L2, in the experiment with DMS-114, with M19-MEL, with HOP-18, in the experiment on LXFL 529 and with DMS-273 was > 100 µM (inactive) each time. Besides, in the experiment with DLD-1, the GI50 is > 100 µM (inactive).

With `CC(=O)OC(CC1(C)C(C)CCC23COC(=O)C2=CCCC31)c1ccoc1` (stereo unspecified), the GI50 in the experiment with KM-20L2 is 19.3 µM (inactive); in the experiment with DMS-114, 29.9 µM (inactive); in the experiment on M19-MEL, 33.8 µM (inactive); in the experiment on LXFL 529, 18.4 µM (inactive); in the experiment on DLD-1, 26 µM (inactive); in the experiment with XF498 it was 20.8 µM (inactive).

The values are drawn from ChEMBL document CHEMBL1201862, “PubChem BioAssay data set” (2004).
